Entries after “also recorded” stand apart in the source; their conditions may differ.
What was measured:
Type in all cases: cell-based, human
[1] = system: EC sprouts and tubes; assay: angiogenic sprouting assay (ECs invading from monolayer surface); conditions: for EC tube regression by signaling-mimicking drugs: Frax486 2.5 μM, vinblastine 100 nM, 24 hr
Method: (A) ECs were seeded onto a monolayer surface and then allowed to invade into the gels to form tubes over a 48 hr period. At this time, cultures were then treated with IL-1β or TNFα and in the absence or presence of FIST. Cultures were fixed after 24 hr, stained and photographed to visualize the monolayer surface and the underlying sprouts and tubes. (B) Cultures were established just like in A and then the Pak2 inhibitor, Frax486 (2.5 μM) or the microtubule depolymerizing agent, vinblastine (100 nM), were added to media in the presence or absence of FIST. Cultures were fixed after 24 hr, stained and photographed. Bar equals 200 μm.
Studies to define the factors and signals that promote endothelial cell (EC) lumen and tube formation, EC sprouting and EC-pericyte tube co-assembly have been performed under serum-free defined conditions so that the functional role of individual molecules that regulate these processes can be assessed. Disclosed herein, the factors that control capillary regression are defined. Capillary regression is a process that has been largely neglected despite the likelihood that it may present a fundamental pathogenic feature of major human diseases where capillary disassembly and regression are known to occur (i.e. hypertension, diabetes, ischemic disease in many tissues, neurodegenerative diseases, and malignant cancer). […] EC tube networks were allowed to form for 48 hr. (vasculogenesis type of assay) and then added these agents in dose-response experiments, showing that they potently induce EC tube regression (at low ng levels) (FIG. 1). Real-time movies were performed to visualize these pro-regressive activities. This experimental approach has utilized assays that mimic vasculogenesis or angiogenic sprouting and these factors induce regression equally well in both assay systems. […] These studies have been performed primarily in 3D collagen matrices, but the same result is also observed in 3D fibrin matrices.

[2] = system: EC tube networks; assay: 3D collagen EC tube regression assay; conditions: for EC tube regression in screen of growth factors and cytokines: 40 and 10 ng/ml, 48 hr EC tube networks; for effect of added HDAC6 inhibitor on pharmacologic rescue: 10 μM added to FISSB2, mediators 10 ng/ml, thrombin 1 μg/ml; for effect of added HDAC6 inhibitor on pharmacologic rescue / EC tube regression (pro-regressive activity): 24 hr; for EC tube regression (pro-regressive activity): factor added to established 48 hr EC tube networks
Method: (A) EC cultures with tube networks were established for 48 hr followed by the addition of indicated cytokines or thrombin (Thr) for 24 hr. IL-1β and IL-la were added at 1 ng/ml, TNFα at 3.16 ng/ml and thrombin at 1 μg/ml. Bars equal 100 or 200 μm. (B,C,D) EC tube networks were treated with the indicated cytokines and varying concentrations in dose-response analyses and in the presence or absence of thrombin added at 1 μg/ml. After 24 hr, cultures were fixed, stained and quantitated for EC lumen area per field. These curves are from a representative experiment using triplicate wells for each condition. The values (±SD) are derived from analyzed fields (n=15) where total lumen and tube area was measured. Asterisks indicate significance at p<0.05 compared to control and squares indicate significance at p<0.05 compared to the cytokine treatments alone.
ECs (passages 3-6) and pericytes (passages 3-12) were cultured as previously described^49,50. THP-1 cells were cultured in RPMI-1640-20% FCS. THP-1-T macrophages were differentiated for 72 hr. with 50 ng/ml of phorbol ester in RPMI-20% FCS, and then treated for 48 hr. in RPMI-2% FCS prior to adding TLR ligands. THP-1-VT macrophages were induced to differentiate for 72 hr. with 10^-7 M vitamin D3 (Calcitriol) in RPMI-20% FCS, followed by 48 hr. with phorbol ester in RPMI-2% FCS prior to adding TLR ligands.
(§1) ECs or ECs with pericytes were suspended in 3D collagen matrices and incubated at 37° C. in serum-free defined media as described^9,50,51. Recombinant factors or THP-1 conditioned media were added at the indicated doses to existing 48 or 72 hr. cultures with EC only or EC-pericyte tube networks, respectively. After 24 or 48 hr. for EC only or EC-pericyte tubes, respectively, cultures were fixed in 3% glutaraldehyde or 3% paraformaldehyde. EC tube areas were traced and quantitated as described. In some cases, neutralizing antibodies were added (10 μg/ml). For signaling experiments, lysates were prepared from control vs. regressing 3D cultures at different time points.

[3] = system: EC tube networks; assay: Western blots of lysates from regressing 3D EC cultures (regression signaling signature); conditions: 24-hr. time course, compared to control EC tubes
Method: (A,B) ECs tube networks were treated with the indicated factors vs. control and at different time points, lysates were prepared from the 3D cultures. Western blots were performed using the different indicated antibodies. (C) Schematic illustrating findings that define a capillary regression signaling signature.
THP-T macrophages were treated with Pam3CSK4 (Pam) or LPS and conditioned medium was added at a 1:20 or 1:50 dilution, respectively, to EC tube networks. Control and IL10-treated cultures were compared with the conditioned medium treatments within the same experiment. At the indicated time points, lysates were obtained, and Western blots were performed with the indicated antibodies.
as §1

[4] = system: EC-pericyte tube networks; assay: EC-pericyte co-culture regression assay; conditions: added to 72 hr co-cultures
Method: (A) EC-pericyte (GFP-labeled) co-cultures were established and allowed to form for 72 hr and at this time, the combination of IL-1β (10 ng/ml), TNFα (10 ng/ml) and thrombin (11 μg/ml) were added in combination compared to control and real-time movies were performed. Light and fluorescent image overlays over time are shown in representative fields. Arrowheads indicate clusters of pericytes that accumulate together during regression responses in response to these three factors in combination. After 48 hr, fixed cultures were stained for CD31 to detect ECs and fluorescence image overlays were performed. (B) The same set up was established as in A, except that each individual factor and combination of factors were added. After 48 hr, the cultures were fixed and stained for CD31. Confocal images were obtained, and fluorescence overlay images are shown.
(A) EC-pericyte co-cultures were established for 72 hr, and then were left untreated or with IL-1β (10 ng/ml), TNFα (10 ng/ml), and thrombin (11 μg/ml) in combination. After 48 hr, cultures were fixed and stained with CD31, confocal microscopy and 3D reconstruction of the images allowed for an upright and side view. (B) EC-pericyte tube networks were treated with the indicated single and combined factors and after fixation, EC tube area was quantitated. […] The values (±SD) were obtained from analyzed fields (n=15) where total lumen and tube area was measured. Asterisks indicate increased significance at p<0.05 compared to control, the squares indicate decreased significance at p<0.05 relative to the single factor conditions and the triangle indicates significance at p<0.05 relative to the double factor conditions. (C) EC-pericyte tube networks were treated with indicated combinations of factors. After 48 hr, total GFP fluorescence per well was quantitated as a measure of pericyte number since they are GFP-labeled. […] Asterisks indicate significance at p<0.05 compared to control.
as §1

CCn1c(=O)c(-c2ccc(Cl)cc2Cl)cc2cnc(Nc3ccc(N4CCNCC4)c(F)c3)nc21 [Frax486, reference compound] was tested, and the “EC tube regression by signaling-mimicking drugs” value [1] was “led to marked regression”.

With IFNα the “EC tube regression in screen of growth factors and cytokines” value (“EC tube regression in screen” for short) [2] was “did not have any activity”.

With IFNγ: interferon gamma the “EC tube regression in screen” value [2] was “demonstrated significantly increased regression at both doses”.

For IL-13: cytokine, the “EC tube regression in screen” value [2] was “demonstrated significantly increased regression at both doses”.

O=C(CCCCCCC(=O)Nc1ccc([C@H]2O[C@@H](CSc3nc(-c4ccccc4)c(-c4ccccc4)o3)C[C@@H](c3ccc(CO)cc3)O2)cc1)NO [tubacin, reference compound] was tested, and the “effect of added HDAC6 inhibitor on pharmacologic rescue” value [2] was “enhance the pharmacologic rescue of capillary regression induced by pro-inflammatory mediators”.

“IL-1β: interleukin-1 beta, pro-inflammatory cytokine” was tested, and the “ICAM-1 and VCAM-1 levels” value [3] was “Strong upregulation of ICAM-1 and VCAM-1”, the “phospho-Pak2, phospho-cofilin, acetylated tubulin, procaspase3 levels” value [3] was “decreased levels of phospho-Pak2, phospho-cofilin, acetylated tubulin and procaspase3” and the “phospho-p38, phospho-JNK, phospho-MLC2 levels” value [3] was “increased levels of phospho-p38, phospho-JNK, and phospho-MLC2”. For the same molecule, the “EC tube regression in EC-pericyte co-cultures” value [4] was “marked tube regression in response to each factor individually and, also in combination”, the pericyte numbers [4] was “an increase in pericyte numbers” and the “EC tube regression in screen” value [2] was “more potent pro-regressive factors than the other factors described herein”. For the same molecule, the “EC tube regression (pro-regressive activity)” value [2] was “directly cause capillary tube collapse and regression” and the “degeneration of sprouts and EC monolayer” value ([1]; angiogenic sprouting system) was “induce degeneration of the invading sprouts, but also the EC monolayer surface where the sprouts originated”.

CC[C@]1(O)C[C@@H]2CN(CCc3c([nH]c4ccccc34)[C@@](C(=O)OC)(c3cc4c(cc3OC)N(C)[C@H]3[C@@](O)(C(=O)OC)[C@H](OC(C)=O)[C@]5(CC)C=CCN6CC[C@]43[C@@H]65)C2)C1 [vinblastine, reference compound] was tested, and the “EC tube regression by signaling-mimicking drugs” value [1] was “led to marked regression”.

With C[C@@H](N)[C@H]1CC[C@H](C(=O)Nc2ccncc2)CC1 [Y27632, reference compound] the “effect of adding drug to FISTSB on rescue” value ([2]; FISTSBY vs FISTSB) was “did not enhance the ability of FISTSB to rescue capillary regression”.

With TGFβ1: growth factor the “EC tube regression in screen” value [2] was “demonstrated significantly increased regression at both doses”.

“IL-6: cytokine co-induced in macrophages along with IL-1 and TNF” was tested, and the “EC tube regression (pro-regressive activity)” value [2] was “does not have pro-regressive activity; also recorded: had no regressive effect”.

For CN1CCc2c(c3ccccc3n2Cc2ccc(C(=O)NO)cc2)C1 [tubastatin, reference compound], the “effect of added HDAC6 inhibitor on pharmacologic rescue” value [2] was “enhance the pharmacologic rescue of capillary regression induced by pro-inflammatory mediators”.

B1: BMP-9: growth factor (protein, UniProt Q9UK05 320-429, looked up)
Growth/differentiation factor …: SAGAGSHCQKTSLRVNFEDIGWDSWIIAPKEYEAYECKGGCFFPLADDVTPTKHAIVQTLVHLKFPTKVGKACCVPTKLSPISVLYKDDMGVPTLKYHYEGMSVAECGCR
B1 was tested, and the “EC tube regression in screen” value [2] was “demonstrated significantly increased regression at both doses”.

B2: IL-la: IL-1 isoform, pro-regressive cytokine (protein, UniProt P01583 113-271, looked up)
Interleukin-1 alpha: SAPFSFLSNVKYNFMRIIKYEFILNDALNQSIIRANDQYLTAAALHNLDEAVKFDMGAYKSSKDDAKITVILRISKTQLYVTAQDEDQPVLLKEMPEIPKTITGSETNLLFFWETHGTKNYFTSVAHPNLFIATKQDYWVCLAGGPPSITDFQILENQA
With B2 the “EC tube regression (pro-regressive activity)” value [2] was “directly cause capillary tube collapse and regression; also recorded: powerful ability to induce EC tube regression”.

B3: IL-4: interleukin-4 (protein, UniProt P05112 25-153, looked up)
Interleukin-4: HKCDITLQEIIKTLNSLTEQKTLCTELTVTDIFAASKNTTEKETFCRAATVLRQFYSHHEKDTRCLGATAQQFHRHKQLIRFLKRLDRNLWGLAGLNSCPVKEANQSTLENFLERLKTIMREKYSKCSS
In the case of B3, the “EC tube regression in screen” value [2] is reported as “demonstrated significantly increased regression at both doses”.

B4: TGFβ2: growth factor (protein, UniProt P61812 303-414, looked up)
Transforming growth factor …: ALDAAYCFRNVQDNCCLRPLYIDFKRDLGWKWIHEPKGYNANFCAGACPYLWSSDTQHSRVLSLYNTINPEASASPCCVSQDLEPLTILYYIGKTPKIEQLSNMIVKSCKCS
With B4 the “EC tube regression in screen” value [2] was “demonstrated significantly increased regression at both doses”.

B5: BMP-10: growth factor (protein, UniProt O95393 317-424, looked up)
Bone morphogenetic protein 10: NAKGNYCKRTPLYIDFKEIGWDSWIIAPPGYEAYECRGVCNYPLAEHLTPTKHAIIQALVHLKNSQKASKACCVPTKLEPISILYLDKGVVTYKFKYEGMAVSECGCR
In the case of B5, the “EC tube regression in screen” value [2] is reported as “demonstrated significantly increased regression at both doses”.

B6: Light: pro-regressive factor identified in the cytokine screen (protein, UniProt O43557 83-240, looked up)
Tumor necrosis factor ligand …: LIQERRSHEVNPAAHLTGANSSLTGSGGPLLWETQLGLAFLRGLSYHDGALVVTKAGYYYIYSKVQLGGVGCPLGLASTITHGLYKRTPRYPEELELLVSQQSPCGRATSSSRVWWDSSFLGGVVHLEAGEKVVVRVLDERLVRLRDGTRSYFGAFMV
For B6, the “EC tube regression in screen” value [2] was “demonstrated significantly increased regression at both doses”.

— patent US20240122934A1, “COMPOSITIONS AND METHODS OF TREATMENT FOR INHIBITING CAPILLARY TUBE REGRESSION” (University of South Florida, priority 2019, published 2024)
